This note sets out measurements from ChEMBL document CHEMBL4364315, “Synthesis and evaluation of cytotoxic and Na+/K+-ATP-ase inhibitory activity of selected 5α-oleandrigenin derivatives” (Eur J Med Chem, 2019).

Each structure is given as a SMILES string. Active and inactive are the calls of the source. The rule behind the calls is not given here.

In one assay the test system is HeLa. Briefly: Antiproliferative activity against human HeLa cells assessed as reduction in cell viability after 72 hrs by resazurin dye based assay. It counts as functional.
Assay [1] has as its target T1, Sodium/potassium-transporting ATPase (Sus scrofa) (UniProt P05027+P05024+D2WKD8+D2WKD7+F1ST41). Kind of assay: Inhibition of porcine kidney Na+/K+-ATPase assessed as residual activity at 50 uM preincubated for 2 mins followed by ATP addition and measured after 6 mins by bagin-sky assay relative to untreated control. The format is protein-complex assay.
In the next assay the test system is A2780. Briefly: Antiproliferative activity against human A2780 cells assessed as reduction in cell viability after 72 hrs by resazurin dye based assay. The format is functional. Conditions: A2780, 72 h.
A further assay concerns BJ. Briefly: Cytotoxicity against human BJ cells assessed as reduction in cell viability after 72 hrs by resazurin dye based assay.
The subject of assay [2] is CCRF-CEM. Kind of assay: Cell cycle arrest in human CEM cells assessed as increase in cell population at G0/G1 phase at 15 uM after 24 hrs by RNase A/propidium iodide staining-based flow cytometric analysis. The format is functional.
The subject of another assay is MCF7. Briefly: Antiproliferative activity against human MCF7 cells assessed as reduction in cell viability after 72 hrs by resazurin dye based assay. The format is functional. As to conditions: MCF7, 72 h.
Assay [3] concerns CCRF-CEM. Briefly: Antiproliferative activity against human CEM cells assessed as reduction in cell viability after 72 hrs by resazurin dye based assay. It counts as functional.
The test system of assay [4] is CCRF-CEM. Kind of assay: Cell cycle arrest in human CEM cells assessed as reduction in cell population at S phase at 15 uM after 24 hrs by RNase A/propidium iodide staining-based flow cytometric analysis. It counts as functional.
The test system of assay [5] is CCRF-CEM. Kind of assay: Induction of apoptosis in human CEM cells assessed as increase in relative activity of caspase-3/7 at 15 uM using AC-DEVD-AMC as substrate after 24 hrs by fluorescence based assay. It counts as functional, cell-based.
Assay [6] concerns CCRF-CEM. Briefly: Cell cycle arrest in human CEM cells assessed as accumulation of cells at sub-G1 phase at 15 uM after 24 hrs by RNase A/propidium iodide staining-based flow cytometric analysis. It counts as functional.
Assay [7] deals with CCRF-CEM. Kind of assay: Induction of apoptosis in human CEM cells assessed as PARP-1 cleavage at 15 uM after 24 hrs by Western blot analysis. The format is functional, cell-based.
In assay [8] the test system is CCRF-CEM. Briefly: Induction of apoptosis in human CEM cells assessed as caspase-7 fragmentation at 15 uM after 24 hrs by Western blot analysis. The format is functional, cell-based.
The test system of another assay is Hep 3B2. Briefly: Antiproliferative activity against human Hep3B cells assessed as reduction in cell viability after 72 hrs by resazurin dye based assay. It counts as functional.
For assay [9], the system named is CCRF-CEM. Briefly: Effect on cell cycle analysis in human CEM cells at 15 uM after 24 hrs by RNase A/propidium iodide staining-based flow cytometric analysis. It counts as functional.
Assay [10] has as its system CCRF-CEM. Briefly: Induction of apoptosis in human CEM cells assessed as increase in relative activity of caspase-3/7 at 15 uM using AC-DEVD-AMC as substrate after 24 hrs by fluorescence based assay relative to untreated control. It counts as functional.
Assay [11] has as its system CCRF-CEM. Kind of assay: Induction of apoptosis in human CEM cells assessed as decrease in Mcl-1 expression at 15 uM after 24 hrs by Western blot analysis. It counts as functional, cell-based.
Assay [12] deals with T1, Sodium/potassium-transporting ATPase (Sus scrofa). Kind of assay: Inhibition of porcine kidney Na+/K+-ATPase at 50 uM preincubated for 2 mins followed by ATP addition and measured after 6 mins by bagin-sky assay relative to Olean-drigenin. The format is protein-complex assay.
Assay [13] deals with CCRF-CEM. Kind of assay: Cell cycle arrest in human CEM cells assessed as increase in accumulation of cells in G2/M phase after 24 hrs by RNase A/propidium iodide staining-based flow cytometric analysis. It counts as functional.
Assay [14] relates to CCRF-CEM. Briefly: Cell cycle arrest in human CEM cells assessed as increase in accumulation of cells in S phase after 24 hrs by RNase A/propidium iodide staining-based flow cytometric analysis. The format is functional.
Assay [15] concerns CCRF-CEM. Briefly: Cell cycle arrest in human CEM cells assessed as decrease in cell population at G0/G1 phase at 15 uM after 24 hrs by RNase A/propidium iodide staining-based flow cytometric analysis. The format is functional.

`CO[C@H]1CC[C@@]2(C)[C@@H](CC[C@@H]3[C@@H]2CC[C@]2(C)[C@@H](C4=CC(=O)OC4)[C@@H](O)[C@H]4O[C@]342)C1`: the 50% inhibitory concentration (IC50) with HeLa, with A2780, in the assay on BJ, in the assay on MCF7 and with CCRF-CEM [3] was above 50 µM in each case. For the same molecule, the Activity in assay [1] stood at 75%. Besides, the result in the assay with CCRF-CEM [2] and with CCRF-CEM [4] was Active.
With `CO[C@H]1CC[C@@]2(C)[C@@H](CC[C@@H]3[C@@H]2CC[C@]2(C)[C@@H](C4=CC(=O)OC4)[C@@H](O)C[C@]32O)C1`, the IC50 in the assay with HeLa is above 50 µM; in the assay with A2780, above 50 µM; in the assay on BJ, above 50 µM; in the assay with MCF7, above 50 µM; in the assay with CCRF-CEM [3] it was 14.1 µM. Besides, in the assay on CCRF-CEM [5], the result was inactive. Also, the Activity in assay [1] was 25%. Besides, the result with CCRF-CEM [6], with CCRF-CEM [7] and in the assay with CCRF-CEM [8] was Active.
On to `CO[C@H]1CC[C@@]2(C)[C@@H](CC[C@@H]3[C@@H]2CC[C@]2(C)[C@@H](c4ccoc4)[C@@H](OC(C)=O)C[C@]32O)C1`, for which the IC50 in the assay with HeLa, with A2780, with BJ, in the assay on MCF7, in the assay on CCRF-CEM [3] and in the assay with Hep 3B2 was above 50 µM throughout. The Activity in assay [1] worked out at 75%. Moreover, in the assay with CCRF-CEM [9], the outcome was inactive.
Turning to `CC(=O)O[C@H]1C[C@]2(O)[C@@H]3CC[C@@H]4C[C@@H](O)CC[C@]4(C)[C@H]3CC[C@]2(C)[C@H]1C1=CC(=O)OC1`, the IC50 in the assay on HeLa came to 0.2 µM; in the assay on BJ, 0.1 µM; in the assay with MCF7 it was 0.8 µM; in the assay on CCRF-CEM [3], 0.2 µM. In addition, the Activity in [1] was 75%.
As for `CO[C@H]1CC[C@@]2(C)[C@@H](CC[C@@H]3[C@@H]2CC[C@]2(C)[C@@H](c4ccoc4)[C@@H](O)[C@H]4O[C@]342)C1`, the IC50 in the assay with HeLa was 11.9 µM; in the assay on A2780, 18.4 µM; in the assay with BJ it was above 50 µM; in the assay with MCF7 it was 50 µM; with CCRF-CEM [3], 36.4 µM; with Hep 3B2, 27.2 µM. In addition, in [1], the Activity amounted to 101%.
For `CO[C@H]1CC[C@@]2(C)[C@@H](CC[C@@H]3[C@@H]2CC[C@]2(C)[C@@H](C4=CC(=O)OC4)[C@@H](OC(C)=O)[C@@H]4O[C@@]342)C1`, the “fold change (FC)” value with CCRF-CEM [10] was “<=19”. In addition, the IC50 in the assay with HeLa was 17.5 µM; with A2780 it was 4.9 µM; in the assay with BJ it was 5.7 µM; in the assay with MCF7, 4.4 µM; in the assay on CCRF-CEM [3], 1.3 µM; in the assay with Hep 3B2 it was above 50 µM. Besides, the Activity in assay [1] was determined as 104%. Further, the result in the assay on CCRF-CEM [6], with CCRF-CEM [7], with CCRF-CEM [11] and in the assay on CCRF-CEM [8] was Active.
As to `CO[C@H]1C[C@H](O[C@H]2CC[C@@]3(C)[C@H](CC[C@@H]4[C@@H]3CC[C@]3(C)[C@@H](C5=CC(=O)OC5)[C@@H](OC(C)=O)C[C@]43O)C2)O[C@@H](C)[C@@H]1O` [OLEANDRIN], the IC50 with HeLa turned out to be 0.062 µM; with BJ it was 0.026 µM; in the assay with MCF7 it was 0.033 µM; in the assay with CCRF-CEM [3] it was 0.019 µM. Also, in assay [1], the Activity is 49%. Moreover, the inhibition in [12] is 25%.
With `CO[C@H]1CC[C@@]2(C)[C@@H](CC[C@@H]3[C@@H]2CC[C@]2(C)[C@@H](C4=CC(=O)OC4)[C@@H](OC(C)=O)C[C@]32O)C1`, the Activity entry in the assay on CCRF-CEM [13] is “Dose-dependent effect”; in [1], 24%; in the assay with CCRF-CEM [14], “Dose-dependent effect”. For the same molecule, the IC50 turned out to be 14.8 µM with HeLa; 5.9 µM in the assay on A2780; 7.9 µM with BJ; 21.1 µM with MCF7; 5.8 µM in the assay with CCRF-CEM [3]; 7.7 µM in the assay on Hep 3B2. Besides, the result with CCRF-CEM [5], in the assay on CCRF-CEM [6], in the assay with CCRF-CEM [7], in the assay on CCRF-CEM [15] and in the assay with CCRF-CEM [8] was Active.
With `CO[C@H]1CC[C@@]2(C)[C@@H](CC[C@@H]3[C@@H]2CC[C@]2(C)[C@@H](C4=CC(=O)OC4)[C@@H](OC(C)=O)[C@H]4O[C@]342)C1`, the 50% inhibitory concentration (IC50) with HeLa was 11.3 µM; in the assay on A2780, 1.7 µM; in the assay on BJ, 4.5 µM; in the assay on MCF7, 7.6 µM; with CCRF-CEM [3], 2.5 µM. In addition, the result in the assay on CCRF-CEM [5], in the assay on CCRF-CEM [6], in the assay on CCRF-CEM [7], in the assay with CCRF-CEM [11] and in the assay on CCRF-CEM [8] was Active. Further, the Activity in assay [1] turned out to be 25%.
